In patent US9150592B2, “Heterocyclic nuclear hormone receptor modulators” (AbbVie Inc., priority 2012, dated 2015):

Assays:
[1] = biological target: T1, Glucocorticoid Receptor (GR) (Homo sapiens, UniProt P04150); assay: GR Fluorescence Polarization Assay (PolarScreen Glucocorticoid Receptor Competitor Assay, Red); conditions: IC50 class ranges, read-out: GR binding
T1 construct: purchased Invitrogen P2893
T1 sequence (P04150 1-777): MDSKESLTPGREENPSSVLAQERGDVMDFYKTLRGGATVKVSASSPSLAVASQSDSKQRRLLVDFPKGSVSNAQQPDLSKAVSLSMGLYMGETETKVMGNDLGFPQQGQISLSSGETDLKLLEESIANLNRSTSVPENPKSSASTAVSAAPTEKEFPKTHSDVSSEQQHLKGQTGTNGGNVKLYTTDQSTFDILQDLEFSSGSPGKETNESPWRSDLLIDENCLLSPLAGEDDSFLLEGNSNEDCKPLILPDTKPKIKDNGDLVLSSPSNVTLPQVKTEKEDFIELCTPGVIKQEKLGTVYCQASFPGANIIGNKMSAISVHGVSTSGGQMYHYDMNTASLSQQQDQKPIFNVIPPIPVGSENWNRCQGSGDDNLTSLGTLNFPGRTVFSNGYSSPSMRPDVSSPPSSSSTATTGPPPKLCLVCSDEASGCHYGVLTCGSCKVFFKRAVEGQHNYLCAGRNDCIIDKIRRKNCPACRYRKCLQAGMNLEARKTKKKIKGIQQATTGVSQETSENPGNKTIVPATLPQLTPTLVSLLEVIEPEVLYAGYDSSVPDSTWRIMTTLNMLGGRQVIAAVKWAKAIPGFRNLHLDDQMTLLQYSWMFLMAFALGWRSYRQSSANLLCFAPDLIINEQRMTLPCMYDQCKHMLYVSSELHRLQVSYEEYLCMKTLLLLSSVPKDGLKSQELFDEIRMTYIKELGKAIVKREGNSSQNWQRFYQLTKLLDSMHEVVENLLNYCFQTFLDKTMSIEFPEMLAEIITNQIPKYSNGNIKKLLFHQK
Method in brief: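 Competitive fluorescence-polarization assay using a red fluorescent glucocorticoid tracer with human GR in kit buffer. Compounds serially diluted 1:4 in DMSO, incubated with tracer and GR overnight at 4° C, then polarization read.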

[2] = test system: IL-6 in A549 cells stimulated with IL-1β; assay: A549 Cell Assay to Measure Inflammation Markers (inhibition of IL-1β-induced IL-6); assay type: cell-based; conditions: intrinsic activity, Emax class ranges; for Emax: Homo sapiens, A549, A549 Cell Assay to Measure Inflammation Markers
Method in brief: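 Compound pre-incubated with A549 cells 1 h at 37 °C, then stimulated with IL-1β (1 ng/mL final, 0.1% DMSO). Supernatant IL-6 quantified by MSD immunoassay after a further incubation. IC50 and Emax derived.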

SMILES | IC50 [1] [nM] | Emax [2] [%] | A549 Emax ([2]; A549 Cell Assay to Measure Inflammation Markers)
Cc1cc(Cl)cnc1C1SC(C)(C)CNc2c1c(C1CC1)nn2C (stereo not shown) [D.50] | 100 to 1000 | < 50 | 
Cc1cc(Br)ccc1C1SC(C)CNc2c1c(C1CC1)nn2C (stereo not shown) [D.51, 4-(4-bromo-2-methyl-phenyl)-3-cyclopropyl-1,6-dimethyl-4,6,7,8-tetrahydropyrazolo[3,4-e][1,4]thiazepine] | 100 to 1000 | < 50 | 
Cc1cc(Br)ccc1C1SC(C)CNc2c1c(C1CC1)nn2C (stereo not shown) [D.52] | < 100 |  | D (a compound with Emax<50%)
Cn1nc(C2CC2)c2c1NCC(C)(C)SC2c1ccc(Cl)cc1F (stereo not shown) [D.53] | < 100 | < 50 | 
Cc1ccc(Br)cc1C1SC(C)(C)C=Nc2c1c(C1CC1)nn2C (stereo not shown) [D.54] | 1000 to 10000 | < 50 | 
Cc1ccc(Br)cc1C1SC(C)(C)CNc2c1c(C1CC1)nn2C (stereo not shown) [D.55, 4-(5-bromo-2-methyl-phenyl)-3-cyclopropyl-1,6,6-trimethyl-7,8-dihydro-4H-pyrazolo[3,4-e][1,4]thiazepine] | < 100 | < 50 | 
Cc1cc(F)ccc1C1SC(C)(C)CNc2c1c(C1CC1)nn2C (stereo not shown) [D.56] | < 100 | < 50 | 
Cc1cc(Cl)ccc1C1SC(C)(C)CNc2c1c(C)nn2C (stereo not shown) [D.57] | < 100 | > 50 | 
Cc1cc(Br)ccc1C1SC(C)(C)CNc2c1c(C)nn2C (stereo not shown) [D.58, 4-(4-bromo-2-methyl-phenyl)-1,3,6,6-tetramethyl-7,8-dihydro-4H-pyrazolo[3,4-e][1,4]thiazepine] | < 100 | > 50 | 
Cc1cc(Cl)ccc1C1SCCNc2c1c(C)nn2C (stereo not shown) [D.59] | 100 to 1000 | < 50 | 
Cc1nn(C)c2c1C(c1ccc(Br)cc1Cl)SC(C)(C)CN2 (stereo not shown) [D.60] | < 100 | > 50 | 
Cc1cc(C(F)(F)F)ccc1C1SC(C)(C)CNc2c1c(C)nn2C (stereo not shown) [D.61] | < 100 | < 50 | 
Cc1cc(Br)ccc1C1SC(C)CNc2c1c(C)nn2C (stereo not shown) [D.62, 4-(4-bromo-2-methyl-phenyl)-1,3,6-trimethyl-4,6,7,8-tetrahydropyrazolo[3,4-e][1,4]thiazepine] | 100 to 1000 | < 50 | 
Cc1n[nH]c2c1C(c1ccc(Cl)cc1Cl)SC(C)(C)CN2 (stereo not shown) [D.63] | 1000 to 10000 | < 50 | 
CC(C)c1nn(C)c2c1C(c1ccc(Cl)cc1Cl)SC(C)(C)CN2 (stereo not shown) [D.64] | 100 to 1000 | < 50 | 
Cc1nn(C)c2c1C(c1ccc(Cl)cc1Cl)SC1(CCCC1)CN2 (stereo not shown) [D.65] | < 100 | < 50 | 
Cc1nn(C)c2c1C(c1ccc(Cl)cc1Cl)SC1(CCC1)CN2 (stereo not shown) [D.66] | < 100 | < 50 | 
Cc1nn(C)c2c1C(c1ccc(Cl)cc1Cl)SC1(CCOCC1)CN2 (stereo not shown) [D.67] | < 100 | < 50 | 
Cc1nn(C)c2c1C(c1ccc(Cl)cc1)SC(CCO)CN2 (stereo not shown) [D.68, 2-(4-(4-chlorophenyl)-1,3-dimethyl-4,6,7,8-tetrahydro-1H-pyrazolo[3,4-e][1,4]thiazepin-6-yl)ethanol 2,2,2-trifluoracetate] | < 100 | < 50 | 

SMILES | IC50 [1] [nM] | Emax [2] [%] | A549 Emax ([2]; A549 Cell Assay to Measure Inflammation Markers)
Cc1c(Br)cccc1C1SC(C)(C)CNc2c1c(C1CC1)nn2C (stereo not shown) [D.69] | 100 to 1000 | < 50 | 
Cc1cc(Cl)ccc1C1SC(C)(C)CNc2c1c(C)nn2C1CCCC1 (stereo not shown) [D.70] | 100 to 1000 | < 50 | 
Cc1cc(S(C)(=O)=O)ccc1C1SC(C)(C)CNc2c1c(C)nn2C (stereo not shown) [D.71] | 1000 to 10000 | < 50 | 
Cc1cc(Cl)ccc1C1SCCNc2c1c(C1CCCO1)nn2C (stereo not shown) [D.72] | 100 to 1000 | < 50 | 
Cc1cc(Cl)ccc1C1SCCNc2c1c(O)nn2C (stereo not shown) [D.73, 4-(4-chloro-2-methyl-phenyl)-1-methyl-4,6,7,8-tetrahydropyrazolo[3,4-e][1,4]thiazepin-3-ol] | > 10000 | < 50 | 
Cn1nc(C2CC2)c2c1NCC(C)(C)SC2c1ccc(Cl)cc1Cl (stereo not shown) [D.74] | < 100 | < 50 | 
Cc1nn(C)c2c1C(c1ccc3[nH]ncc3c1)SCCN2 (stereo not shown) [D.76] | > 10000 | < 50 | 
Cn1nc(C2CCCC2)c2c1NCCSC2c1ccc(Cl)cc1Cl (stereo not shown) [D.77] | < 100 | < 50 | 
Cn1nc(C2CCCC2)c2c1NCC(C)(C)SC2c1ccc(Cl)cc1Cl (stereo not shown) [D.79] | < 100 | < 50 | 
Cc1nn(C)c2c1C(c1ccc(Cl)cc1Cl)SCCN2 (stereo not shown) [D.80] | 100 to 1000 | < 50 | 
Cn1nc(-c2ccc(Cl)cc2)c2c1NCCSC2c1ccc(Cl)cc1Cl (stereo not shown) [D.82] | 100 to 1000 | < 50 | 
Cn1nc(-c2ccccc2)c2c1NCCSC2c1ccc(Cl)cc1Cl (stereo not shown) [D.83] | < 100 | < 50 | 
CC(C)c1nn(C)c2c1C(c1ccc(Cl)cc1Cl)SCCN2 (stereo not shown) [D.84] | 100 to 1000 | < 50 | 
Cn1nc(C(C)(C)C)c2c1NCCSC2c1ccc(Cl)cc1Cl (stereo not shown) [D.85] | 100 to 1000 | < 50 | 
Cn1nc(-c2cc(F)cc(F)c2)c2c1NCCSC2c1ccc(Cl)cc1Cl (stereo not shown) [D.90] | < 100 | < 50 | 
CC(C)Cc1nn(C)c2c1C(c1ccc(Cl)cc1Cl)SCCN2 (stereo not shown) [D.92] | < 100 | < 50 | 
Cn1nc(-c2ccc(F)cc2)c2c1NCCSC2c1ccc(Cl)cc1Cl (stereo not shown) [D.94] | < 100 | < 50 | 
Cn1nc(-c2cccs2)c2c1NCCSC2c1ccc(Cl)cc1Cl (stereo not shown) [D.101] | < 100 | < 50 | 
Cn1nc(-c2ccccn2)c2c1NCCSC2c1ccc(Cl)cc1F (stereo not shown) [D.103] | < 100 | < 50 | 

SMILES | IC50 [1] [nM] | Emax [2] [%] | A549 Emax ([2]; A549 Cell Assay to Measure Inflammation Markers)
Cc1cc(Cl)ccc1C1SCCNc2c1c(-c1ccccn1)nn2CC(F)(F)F (stereo not shown) [D.104] | < 100 | > 70 | 
Cc1cc(Cl)ccc1C1SCCNc2c1c(-c1ccccn1)nn2C(C)C (stereo not shown) [D.105] | < 100 | > 60 | 
COc1ccc(C)c(C2SC(C)(C)CNc3c2c(C2CC2)nn3C)c1 (stereo not shown) [D.106] | < 100 | < 50 | 
CCn1nc(C2CC2)c2c1NCC(C)(C)SC2c1ccc(Cl)cc1C (stereo not shown) [D.107] | < 100 | < 50 | 
CCn1nc(-c2ccncn2)c2c1NCCSC2c1ccc(Br)cc1C (stereo not shown) [D.108] | < 100 | > 50 | 
Cc1cc2c(cnn2-c2ccc(F)cc2)cc1C1SCCNc2c1c(-c1ccccn1)nn2C (stereo not shown) [D.109] | < 100 | > 70 | 
COC(=O)c1ccc(C2SCCNc3c2c(-c2ccccn2)nn3C)c(Cl)c1 (stereo not shown) [E.1, methyl 3-chloro-4-[1-methyl-3-(2-pyridyl)-4,6,7,8-tetrahydropyrazolo[3,4-e][1,4]thiazepin-4-yl]benzoate] | < 100 | < 50 | 
COC(=O)c1ccc(C)c(C2SCCNc3c2c(-c2ccccn2)nn3C)c1 (stereo not shown) [E.3, methyl 4-methyl-3-[1-methyl-3-(2-pyridyl)-4,6,7,8-tetrahydropyrazolo[3,4-e][1,4]thiazepin-4-yl]benzoate] | > 10000 | < 50 | 
COC(=O)c1cc(C2SCCNc3c2c(-c2ccccn2)nn3C)c(C)s1 (stereo not shown) [E.5] | 1000 to 10000 | < 50 | 
COC(=O)c1ccc(C2SCC(C)Nc3c2c(-c2ccccn2)nn3C)c(C)c1 (stereo not shown) [E.7] | < 100 | > 50 | 
Cc1ncccc1NC(=O)c1ccc(C2SCCNc3c2c(-c2ccccn2)nn3C)c(Cl)c1 (stereo not shown) [F.1, 3-chloro-N-(2-methyl-3-pyridyl)-4-[1-methyl-3-(2-pyridyl)-4,6,7,8-tetrahydropyrazolo[3,4-e][1,4]thiazepin-4-yl]benzamide] | < 100 | > 70 | 
Cc1ncccc1NC(=O)c1ccc(-c2nn(C)c3c2C(c2ccc(Cl)cc2Cl)SCCN3)nc1 (stereo not shown) [F.2] | 1000 to 10000 | < 50 | 
Cc1ncccc1NC(=O)c1ccc(C2SCCNc3c2c(-c2ccccn2)nn3C)cc1 (stereo not shown) [F.3] | 1000 to 10000 | < 50 | 
Cc1cc(C(=O)Nc2cccnc2C)sc1C1SCCNc2c1c(-c1ccccn1)nn2C (stereo not shown) [F.4] | > 10000 | < 50 | 
Cc1ccc(C(=O)Nc2cccnc2C)cc1C1SCCNc2c1c(-c1ccccn1)nn2C (stereo not shown) [F.5] | > 10000 | < 50 | 
Cc1ncccc1NC(=O)c1cc(C2SCCNc3c2c(-c2ccccn2)nn3C)c(C)s1 (stereo not shown) [F.6] | 1000 to 10000 | < 50 | 
CCn1nc(-c2ccccn2)c2c1NCCCC2c1ccc(C(=O)Nc2cccnc2C)cc1C (stereo not shown) [F.7] | < 100 | > 70 | 
Cc1ccc(C#N)cc1C1SCCNc2c1c(-c1ccccn1)nn2C (stereo not shown) [G.1, 4-methyl-3-[1-methyl-3-(2-pyridyl)-4,6,7,8-tetrahydropyrazolo[3,4-e][1,4]thiazepin-4-yl]benzonitrile] | 100 to 1000 | < 50 | 
